# According to patent US20120225123A1, “Use of Synergistic Combinations of an Avermectin and an Antineoplastic Compounds for the Treatment of Hematological Malignancies” (UNIVERSITY HEALTH NETWORK, priority 2009, published 2012):
# Peptide text beside a SMILES is read from it. * marks the point of attachment. Cbz = O=C(OCc1ccccc1)*; CH2F = FC*
# Tests used:
# OCI-AML2 cells [1] = test: Cell death, viability and cell cycle in OCI-AML2 cells; assay type: cell-based, human; settings: for effect of calcium chelation on IVM-induced cell death: chelation of intra and extracellular calcium
# Procedure: Cell growth and viability was assessed by the MTS assay (Promega, Madison, Wis.) according to the manufacturer's instructions and as previously described.^12 Cell death was measured by Annexin V-fluoroscein isothiocyanate (FITC) and Propidium Iodide (PI; Biovision Research Products, Mountain View, Calif.) staining and flow cytometry according to the manufacturer's instructions and as previously described.^13 To identify CD34+ cells, a normal PBSC sample was co-stained with PE-anti-CD34+ (Beckman Coulter, Marseille France), and APC-anti-CD45 (Becton Dickenson, San Jose Calif.).
# Cell cycle analysis was performed as described previously.^15 Briefly, cells were harvested, washed with cold PBS, and resuspended in 80% cold ethanol. Cells were then treated with 100 ng/mL DNase-free RNase A (Invitrogen) at 37° C. for 30 min, washed with cold PBS, and resuspended in PBS with 50 μg/mL propidium iodide. DNA content was analyzed by flow cytometry (FACSCalibur; Becton Dickinson). The percentage of cells in each phase of the cell cycle was calculated with FlowJo version 8.8 (TreeStar, Ashland, Oreg.).
# [2] = system: STAT1 and target genes IFIT3, OAS1 and TRIM22 in OCI-AML2 cells; test: Gene expression by Q-RT-PCR, OCI-AML2; assay type: cell-based, human; settings: pre-treatment with NAC
# Procedure: Leukemia cells were treated with buffer control or ivermectin (3 μM) for 30 and 40 hours. After treatment, cells were harvested, total RNA was isolated. Total RNA (10 μg) was used for cRNA amplification using the Invitrogen SuperScript kit (Life Technologies, Inc., Burlington, ON, Canada). Amplification and biotin labeling of antisense cRNA was performed using the Enzo® BioArray™ High Yield™ RNA transcript labeling kit (Enzo Diagnostics, Farmingdale, N.Y., USA), according to the manufacturer's instructions. RNA was then hybridized to Affymetrix HG U133 Plus 2.0 gene expression oligonucleotide arrays (Affymetrix, Santa Clara, Calif., USA). Microarray slides were scanned using the GeneArray 2500 scanner (Agilent Technologies). Microarray data were analyzed using GeneSpring GX v10.0 (Agilent), and lists of genes deregulated>2-fold after 30 and 40 hr ivermectin treatment were derived. Pathways and gene ontology analyses were carried out using Ingenuity Pathways Analysis (www.ingenuity.com); and the Database for Annotation, Visualization and Integrated Discovery (DAVID; http://david.abcc.ncifcrf.gov). […]
# Gene expression changes were evaluated in OCI AML2, 0937, HL60, DU145 and PPC-1 cells by real-time Q-RT-PCRas described previously^15, 47. The expression level of STAT1A, STAT1B, TRIM22, OAS1 and IFIT3 before and after incubation of leukemia cells with ivermectin was evaluated.
# leukemia cells = test: Combination of IVM with albendazole, combination index; assay type: cell-based
# OCI-AML2 cells [3] = test: Reactive oxygen species, Carboxy-H2DCFDA staining, OCI-AML2; assay type: cell-based, human; settings: increasing concentrations, flow cytometry
# Procedure: Data were analyzed with FlowJo version 8.8 (TreeStar, Ashland, Oreg.).
smiles,measurement,setting,value
CC(=O)OCOC(=O)CN(CC(=O)OCOC(C)=O)c1ccccc1OCCOc1ccccc1N(CC(=O)OCOC(C)=O)CC(=O)OCOC(C)=O [BAPTA-AM],effect of calcium chelation on IVM-induced cell death,OCI-AML2 cells [1],did not inhibit IVM-induced cell death
O=C(O)CN(CCN(CC(=O)O)CC(=O)O)CC(=O)O [EDTA],effect of calcium chelation on IVM-induced cell death,OCI-AML2 cells [1],did not inhibit IVM-induced cell death
"CC(=O)N[C@@H](CS)C(=O)O [NAC, N-acetyl-L-Cysteine]",effect of free radical scavenger on IVM-induced cell death,OCI-AML2 cells [1]; treated with IVM along with NAC,abrogated IVM-induced cell death
same,effect of NAC pre-treatment on ivermectin upregulation of STAT1 genes,[2],blocked their upregulation
CCCSc1ccc2nc(NC(=O)OC)[nH]c2c1 [albendazole],CI value at the ED25,leukemia cells,1.59
same,CI value at the ED75,leukemia cells,0.89
same,drug interaction with IVM,leukemia cells,antagonized the anti-leukemic effects of IVM
Nc1ccn([C@@H]2O[C@H](CO)[C@@H](O)[C@@H]2O)c(=O)n1 [cytarabine],ROS production,OCI-AML2 cells [3],increase ROS production
COc1cccc2c1C(=O)c1c(O)c3c(c(O)c1C2=O)C[C@@](O)(C(C)=O)C[C@@H]3O[C@H]1C[C@H](N)[C@H](O)[C@H](C)O1 [daunorubicin],ROS production,OCI-AML2 cells [3],increase ROS production
COC(=O)C[C@H](NC(=O)[C@H](C)NC(=O)[C@@H](NC(=O)OCc1ccccc1)C(C)C)C(=O)CF [z-VAD-fmk] (Cbz-Val-Ala-Asp(OMe)-CH2F),effect of pan-caspase inhibitor co-treatment on ivermectin-induced cell death,"OCI-AML2 cells [1]; co-treatment with ivermectin, 24 hours, Annexin V-PI",abrogated cell death
